Test results reported in PubChem BioAssay (NCI).
Values joined by “and” are separate entries in the source; they are usually repeats but may differ in a detail not shown here. Equal values may be shown once.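 A five-concentration, 48-hour dose response in 96-well plates underlies each endpoint, interpolated linearly between surrounding concentrations. GI50 marks 50% less growth. Definition used: TGI = concentration required for complete inhibition of growth.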

How the values were obtained:
Assay in all cases: DTP human tumour cell line panel, 48 h
SN12C renal = tested on: SN12C renal
NCI/ADR-RES ovarian = tested on: NCI/ADR-RES ovarian
MDA-MB-435 = tested on: MDA-MB-435
LOX IMVI melanoma = tested on: LOX IMVI melanoma
COLO 205 colon = tested on: COLO 205 colon
TK-10 renal = tested on: TK-10 renal
MCF7 breast = tested on: MCF7 breast
KM12 colon = tested on: KM12 colon

Compound	GI50 (SN12C renal)	TGI (SN12C renal)	GI50 (NCI/ADR-RES ovarian)	TGI (NCI/ADR-RES ovarian)	GI50 (MDA-MB-435)	TGI (MDA-MB-435)	GI50 (LOX IMVI melanoma)	TGI (LOX IMVI melanoma)	GI50 (COLO 205 colon)	TGI (COLO 205 colon)	GI50 (TK-10 renal)	TGI (TK-10 renal)	GI50 (MCF7 breast)	TGI (MCF7 breast)	GI50 (KM12 colon)	TGI (KM12 colon)
CC1=C[C@H]2C[C@H](C)[C@H]3CC[C@H](C)[C@]4(C1)C(=O)C(O)=C(C)C(=O)[C@@]324	28.7 µM	> 100 µM	17.2 µM	48.4 µM	41.1 µM	> 100 µM	22.1 µM	51.1 µM	19 µM	48.9 µM	47.4 µM	> 100 µM	> 100 µM	> 100 µM	29.4 µM	> 100 µM
CC1=C(C)C2(O)C(=C(C)C1=O)/C(=C(/O)c1ccccc1)c1nc3ccccc3n12 (stereo not drawn)	19.3 µM	34.6 µM			17.3 µM	35.1 µM	16.7 µM	34.6 µM	17.2 µM	31.3 µM	20.1 µM	58.9 µM			17.6 µM	37.6 µM
C=C1C(=O)O[C@H]2[C@H]1CC/C(COC(=O)NCCc1c[nH]c3ccc(Cl)cc13)=C\CC[C@@]1(C)O[C@@H]21	1.64 µM	3.17 µM	2.74 µM	9.77 µM	1.52 µM	3 µM	1.28 µM	2.68 µM	1.85 µM	3.59 µM	1.59 µM	2.97 µM			2.64 µM	7.32 µM
CC12CCC3c4cc(Br)c(O)c(Br)c4CCC3C1CCC2O (stereo not drawn)		42 µM		62.5 µM		18.7 µM		63.6 µM		70.1 µM		43.1 µM		74.6 µM		26.6 µM
O=C(/C=C/C12c3ccccc3C(c3ccccc31)C1C(=O)NC(=O)C12)c1ccc(Cl)cc1 (stereo not drawn)	1.56 µM	3.26 µM	1.77 µM	4.93 µM	1.68 µM	3.5 µM	1.6 µM	3 µM	1.91 µM	3.77 µM	1.92 µM	3.52 µM	1.34 µM	4.05 µM	2.14 µM	5.44 µM
C[C@@H]1COCCN1c1cc(C2([S@@](C)(=N)=O)CC2)nc(-c2ccnc3[nH]ccc23)n1	6.02 µM	> 100 µM	33.9 µM	> 100 µM	5.27 µM	> 100 µM	2.14 µM	14 µM	7.69 µM	> 83.1 µM	6.71 µM	> 71.9 µM	0.956 µM	> 100 µM	5.8 µM	> 100 µM
N#CN1CC[C@H](C(=O)Nc2cc3cc(C(N)=O)ccc3cn2)C1	0.117 µM	46.7 µM	0.192 µM	> 100 µM	0.045 µM	13.2 µM	0.117 µM	> 54.9 µM	0.0855 µM	0.268 µM	0.232 µM	2.44 µM	0.0214 µM	> 100 µM	0.0566 µM	12 µM
O=C(Nc1cc(Oc2cc(F)c(NC(=O)C3(C(=O)Nc4ccc(F)cc4)CC3)cc2F)ccn1)C1CC1	2.68 µM	> 100 µM	2.79 µM	8.73 µM	1.53 µM	4.26 µM	2.2 µM	6.25 µM	1.4 µM	3.27 µM	4.14 µM	> 100 µM	0.936 µM	9.55 µM		7.42 µM
COc1ccc(/C=C\c2cc(OC)c(OC)c(OC)c2)cc1OCC(=O)Nc1ccc2nc(C)sc2c1	3.53 µM	> 100 µM	2.36 µM	8 µM	2.13 µM	6.18 µM	2.64 µM	9 µM	4.4 µM	16.2 µM	4.21 µM	> 100 µM	0.748 µM	12.9 µM	3.79 µM	14.8 µM
COc1ccccc1NS(=O)(=O)c1ccc2oc(SC(C)C)nc2c1	15.5 µM	34.5 µM	14.8 µM	84.1 µM	18.7 µM	94 µM	12.7 µM	46.4 µM	18.6 µM	40.1 µM	18.5 µM	53.8 µM	15.5 µM	> 100 µM	18.5 µM	49 µM
CCN1C[C@]2(COC)[C@H](O)C[C@H](OC)[C@]34C1[C@H]([C@H](OC)[C@H]23)[C@]1(OC(C)=O)[C@H]2[C@@H](OC(=O)c3ccccc3)[C@](O)(C[C@H]24)[C@@H](OC)[C@@H]1O		> 100 µM		> 100 µM		> 100 µM		> 100 µM		> 100 µM		> 100 µM		> 100 µM		> 100 µM
COc1ccc(N(/C=C/C(=O)C(F)(F)F)CC(=O)c2ccc(Cl)cc2)cc1	11.2 µM	23.3 µM	15.7 µM	53.1 µM	5.68 µM	22 µM	14.3 µM	28.8 µM	18.6 µM	40.7 µM	17.7 µM	40.8 µM	18.4 µM	> 100 µM	11.7 µM	32.8 µM
Nc1nc(=O)n([C@@H]2CS[C@H](CO)O2)cc1F	> 100 µM	> 100 µM	> 100 µM	> 100 µM	> 100 µM	> 100 µM	> 100 µM	> 100 µM	> 100 µM	> 100 µM	> 100 µM	> 100 µM	> 100 µM	> 100 µM	> 100 µM	> 100 µM
COc1cc2c(=O)n(CCN(C)C)c3c4cc5c(cc4ccc3c2cc1OC)OCO5	0.226 µM	> 50 µM	0.256 µM	> 50 µM	0.329 µM	1.29 µM	0.1 µM	0.32 µM	0.169 µM	0.922 µM			0.102 µM	6.16 µM	0.53 µM	4.04 µM
CC(=O)c1cc(C(=O)c2ccc3c(c2)Sc2ccccc2N3)c2c(C)cccn12	0.686 µM	> 100 µM	0.184 µM	18 µM	0.0464 µM	0.275 µM	0.595 µM	4.61 µM	0.187 µM	0.426 µM	4.73 µM	> 100 µM	0.117 µM	> 100 µM	0.307 µM	> 100 µM
COc1cc(-n2ccnc2)cc(OC)c1OC	86 µM	> 100 µM	34.2 µM	> 100 µM	75.6 µM	> 100 µM	60.3 µM	> 100 µM	> 100 µM	> 100 µM	42.5 µM	> 100 µM	41.7 µM	> 100 µM	43.2 µM	> 100 µM

Compound	GI50 (SN12C renal)	TGI (SN12C renal)	GI50 (NCI/ADR-RES ovarian)	TGI (NCI/ADR-RES ovarian)	GI50 (MDA-MB-435)	TGI (MDA-MB-435)	GI50 (LOX IMVI melanoma)	TGI (LOX IMVI melanoma)	GI50 (COLO 205 colon)	TGI (COLO 205 colon)	GI50 (TK-10 renal)	TGI (TK-10 renal)	GI50 (MCF7 breast)	TGI (MCF7 breast)	GI50 (KM12 colon)	TGI (KM12 colon)
N#Cc1c(N)nc(NCc2ccccc2)c(C#N)c1-c1ccc(Cl)cc1Cl	> 100 µM	> 100 µM	> 68.1 µM	> 100 µM	> 46.8 µM	> 100 µM	> 100 µM	> 100 µM	> 100 µM	> 100 µM	> 84.3 µM	> 100 µM	> 100 µM	> 100 µM	> 84.5 µM	> 100 µM
O=c1oc2ccc(-c3ccc(F)cc3F)cc2c(=O)n1-c1ccc(Cl)c(C(F)(F)F)c1	2.6 µM	11.7 µM	2.49 µM	8.89 µM	3.07 µM	9.83 µM	2.18 µM	4.91 µM	2.89 µM	8.54 µM	4.41 µM	19.1 µM	2.45 µM	> 100 µM	2.36 µM	5.85 µM
Cc1cccc(NC(=O)/C=C/c2ccc([N+](=O)[O-])cc2)c1		> 58.2 µM		> 59.3 µM		> 52.3 µM		> 53 µM		> 56.3 µM		> 56.8 µM		> 43.9 µM		> 52.8 µM
Nc1ccccc1C#C/C=C\C#Cc1c(F)c(F)c(F)c(F)c1F	7.37 µM	20.5 µM	19.5 µM	41.2 µM	14.9 µM	31.7 µM	2.68 µM	14.6 µM	18.9 µM	37.4 µM	20.1 µM	40.7 µM	24.6 µM	> 100 µM	16.2 µM	37.7 µM
Cc1cn(-c2ccc(S(C)(=O)=O)cc2)c(-c2ccc(Cl)cc2)n1	> 100 µM	> 100 µM	> 100 µM	> 100 µM	> 100 µM	> 100 µM	> 100 µM	> 100 µM	> 100 µM	> 100 µM	> 100 µM	> 100 µM	> 100 µM	> 100 µM	> 100 µM	> 100 µM
Cn1c(=S)c2[nH]c(SCCN3C(=O)c4ccccc4C3=O)nc2n(C)c1=O		> 100 µM		> 100 µM		> 100 µM		> 100 µM		> 100 µM		> 100 µM		> 100 µM		> 100 µM
O=C(C[P+](c1ccccc1)(c1ccccc1)c1ccccc1)C[P+](c1ccccc1)(c1ccccc1)c1ccccc1	0.682 µM	2.14 µM	0.383 µM	11 µM	0.233 µM	0.666 µM	0.235 µM	0.637 µM	0.398 µM	1.51 µM	0.326 µM	1.09 µM	0.332 µM	1.6 µM	1.13 µM	2.63 µM
O=S(=O)(Nc1ccc(F)c(Cl)c1)c1ccc(-c2cnc(C3CC3)o2)cc1	0.663 µM	10.8 µM	0.252 µM	8.76 µM	0.0313 µM	0.187 µM	0.401 µM	13.5 µM	0.375 µM	4.69 µM	1.11 µM	8.29 µM	0.126 µM	9.83 µM	0.151 µM	9.3 µM
COc1cc(/C=C/c2cc(/C=C/c3ccc(O)c(OC)c3)n(C(=O)Nc3ccc(Cl)cc3)n2)ccc1O	0.455 µM	21.6 µM	0.363 µM	3.68 µM	0.149 µM	0.392 µM	0.448 µM	2.26 µM	1.95 µM	3.43 µM	0.966 µM	6.18 µM	0.486 µM	3.39 µM	0.354 µM	1.84 µM
CN1CCN(CCOc2cc(OC3CCOCC3)c3c(Nc4c(Cl)ccc5c4OCO5)ncnc3c2)CC1	0.736 µM and 3.31 µM	27.2 µM and > 10 µM	10.6 µM and 8.91 µM	56.8 µM and > 10 µM	13.5 µM and > 10 µM	27.2 µM and > 10 µM	1.45 µM and 0.971 µM	16.2 µM and > 10 µM	9.81 µM and 7.76 µM	24 µM and > 10 µM	0.671 µM and 0.517 µM	6.4 µM and > 10 µM	4.72 µM and > 10 µM	27.4 µM and > 10 µM	1.32 µM and 2.23 µM	15.1 µM and > 10 µM
CCS(=O)(=O)c1ccc(OC)c(Nc2ncc(-c3ccccc3Cl)o2)c1	14.9 µM	> 25 µM	8.03 µM	> 25 µM	6.73 µM	> 22.1 µM	9.15 µM	> 25 µM	6.67 µM	15.4 µM	16.6 µM	> 25 µM	8.27 µM	> 25 µM	7.59 µM	> 25 µM
C#COc1cccc(Nc2ncnc3cc(NC(=O)[C@H](C)Cl)ccc23)c1	3.69 µM	> 62.5 µM	2.4 µM	> 62.5 µM	1.4 µM	4.3 µM	2.54 µM	> 62.5 µM	3.86 µM	> 62.5 µM	23.6 µM	> 62.5 µM	6.08 µM	> 62.5 µM	2.44 µM	> 62.5 µM
COc1cccc(C2C3=C(COC3=O)N(CCO)c3cc4c(cc32)OCO4)c1 (stereo not drawn)		> 50 µM	0.341 µM	2.72 µM	0.101 µM	0.356 µM	0.451 µM	> 50 µM	0.191 µM	0.854 µM	0.725 µM		0.185 µM	> 50 µM	0.192 µM	
C=C(C)C(=O)O[C@@H]1C/C(C)=C\[C@H](OC(C)=O)C[C@](C)(O)/C=C2/OC(=O)C(COC(C)=O)=C21		2.85 µM				2.8 µM		0.373 µM		2.37 µM		3.7 µM		> 36.5 µM		23.5 µM
CCCCCCCC(=O)OCC(=O)[C@]1(O)Cc2c(O)c3c(c(O)c2[C@@H](OC2CC(N)C(O)C(C)O2)C1)C(=O)c1c(OC)cccc1C3=O (stereo partly drawn)			1.67 µM	4.41 µM	0.325 µM	1.88 µM			0.0812 µM	0.778 µM	0.265 µM	2 µM		0.417 µM	0.188 µM	0.758 µM
